Assay results taken from ChEMBL document CHEMBL1151909, “Mechanism of action of N-phenyl-N'-(2-chloroethyl)ureas in the colchicine-binding site at the interface between alpha- and beta-tubulin” (2009).

These compounds were tested on HT-29 (assay: Antiproliferative activity against human HT-29 cells after 48 hrs by SRB assay). Conditions: HT-29, 48 h.
Assay type: functional

| SMILES | GI50 |
| --- | --- |
| CCCCCc1cccc(NC(=O)NCCCl)c1 | 620 nM |
| COCCCCCc1cccc(NC(=O)NCCCl)c1 | 840 nM |
| COc1ccc(CCc2cccc(NC(=O)NCCCl)c2)cc1O | 9600 nM |
| COc1ccc(/C=C\c2ccc(NC(=O)NCCCl)cc2)cc1O | 2400 nM |
| CC(=O)CCCCc1cccc(NC(=O)NCCCl)c1 | 600 nM |
| O=C(NCCCl)Nc1cccc(CCCCCO)c1 | 160 nM |
| O=C(NCCCl)Nc1cccc(CCCCCCO)c1 | 300 nM |
| O=C(NCCCl)Nc1cccc(CCCCO)c1 | 710 nM |
